Experiments:
HFD-induced obese rats [1] = assay: Glucose tolerance tests after i.c.v. OT infusion; type: in vivo, rat; conditions: after 7 weeks of HFD, i.c.v. 1.6 nmol/d
Protocol: The impact of OT-induced changes in peripheral lipid metabolism on glucose tolerance and insulin sensitivity was determined by glucose tolerance tests (GTT). Glucose (75 mg/kg body weight) was intraperitoneally administered 4 h after food removal. Blood glucose levels were measured using a glucose meter (One Touch II; LifeScan) from tail blood samples at 0, 15, 30, 60, 90, and 120 min after glucose injection.
Two glucose tolerance tests (GTT) were performed, a first one after […] of HFD (i.e. before the respective saline and OT treatments) and a second one at the end of the 2 week saline or OT infusion (i.e. after 7 weeks of HFD).

[2] = test system: enzymes involved in lipid metabolism; assay: Tissue expression of lipid metabolism enzymes (real-time RT-PCR) after i.c.v. OT infusion; type: in vivo, rat; conditions: central OT infusion
[3] = test system: epididymal white adipose tissue (eWAT); assay: eWAT endocannabinoid content after i.c.v. OT infusion; type: in vivo, rat
[4] = Plasma measurements after i.c.v. OT infusion in HFD-induced obese rats; type: in vivo, rat; conditions: rat, plasma, 1.6 nmol/day/rat; i.c.v. OT 1.6 nmol/d, 14 days; mean ± SEM; read-out: plasma Oxytocin
Protocol: (§1) After three weeks of HFD feeding, rats were submitted to surgical procedures. They were anesthetized with intramuscular injection of ketamine-xylasine (Ketalar®-Rompun®, Parke-Davis and Bayer, Leverkusen, Switzerland) at 40 and 9 mg/kg, respectively, and implanted with a cannula in the right lateral cerebral ventricle fixed on the skull with dental cement, as previously described (Rohner-Jeanrenaud et al., 1989, Endocrinology 124, 733-9). After one week of recovery, the drinking response to i.c.v. injection of Angiotensin II (5 ng/μl) (Novabiochem, Laüfelfingen, Switzerland) was measured to confirm the correct placement of the cannula. At the end of the fifth week of high fat diet feeding, osmotic minipumps (Alzet®, model 2001, Alza Corporation, Cupertino, Calif.) delivering oxytocin (NeoMPS®, Strasbourg, France) or its vehicle (NaCl 0.9%) were subcutaneously implanted and connected to the i.c.v. cannula via a polyethylene catheter, as previously described (Rohner-Jeanrenaud et al., 1989, above). OT was delivered at a dose of 1.6 nmol/day/rat or 16 nmol/day/rat during 14 days. A group of vehicle-infused rats was pair-fed to the amount of food consumed by OT-infused animals in order to assess the effects of OT independently from changes in food intake. The pair-feeding regimen consisted in giving one-third of the daily food amount in the morning and the remaining two-thirds just before onset of darkness. Rats were sacrificed using isoflurane anesthesia (Halocarbon Laboratories, River Edge, N.J.) and rapid decapitation between 09:00 and 13:00 h. Blood samples were collected into EDTA-coated tubes, centrifuged and plasma stored at −20° C. Tissues were rapidly removed, freeze-clamped, and stored at −80° C.
(§2) To determine the effect of OT on peripheral metabolism, levels of plasma glucose, insulin, leptin, FFA, glycerol and TG were determined. Plasma glucose was measured by the glucose oxidase method (Glu, Roche Diagnostics GmbH, Rotkreuz, Switzerland). Plasma non-esterified fatty acid (NEFA) and triglyceride (TG) levels were determined using NEFA C and TG enzymatic PAP150 commercial kits from Wako Chemicals GmbH (Neuss, Germany) and Biomérieux (Marcy l'Etoile, France), respectively. Plasma OT levels were determined using an ELISA, as previously described (Pequeux et al., 2001, Scand. J. Clin. Lab. Invest., 61, 407-415). Plasma glycerol levels were measured using the free Glycerol Reagent (Sigma).

HFD-induced obese rats [5] = assay: as above; type: in vivo, rat
Protocol: as §1, §2

[6] = test system: PPAR-alpha knockout (KO) mice; assay: Peripheral OT infusion in PPAR-alpha knockout mice; type: in vivo; conditions: peripheral 50 nmol/day over 3 days
Protocol: The beneficial metabolic effects of OT administration were assayed in the same high-fat diet induced obesity model in rats as in Example 1 and in PPAR-alpha knockout mice (Lee et al., 1995, Mol. Cell. Biol., 15(6):3012-22). HFD-induced obese animals, saline or OT groups (see conditions under Example 1) were subcutaneously infused via minipumps (Alzet®, as above). OT was delivered at a dose of 50 nmol/day/rat during 14 days.
OT was peripherally administered with 50 nmol/day over 3 days in PPAR-alpha knockout (KO) mice and their wild-type littermates. […] Consistently, OT peripheral infusion promoted an increase in the mRNA expression of PPAR-alpha target genes (Acadm, Acox1, Ehhadh, Ucp3) in wild-type mice, while it had no effect in PPAR-alpha knockouts.

[7] = i.c.v. OT 1.6 nmol/d, 14 days, mean ± SEM
[8] = i.c.v. OT 1.6 nmol/d, 14 days, mean ± SEM, listed as Oxytocin

CC[C@H](C)[C@@H]1NC(=O)[C@H](Cc2ccc(O)cc2)NC(=O)[C@@H](N)CSSC[C@@H](C(=O)N2CCC[C@H]2C(=O)N[C@@H](CC(C)C)C(=O)NCC(N)=O)NC(=O)[C@H](CC(N)=O)NC(=O)[C@H](CCC(N)=O)NC1=O [OT, Cys-Tyr-Ile-Gln-Asn-Cys-Pro-Leu-Gly (SEQ ID NO: 1)]
insulin oversecretion during GTT (HFD-induced obese rats [1]): not observed | glucose tolerance (GTT) (HFD-induced obese rats [1]; compared to GTT after 3 weeks of HFD): impairment | HSL at the protein level [2]: stimulatory effect | expression of genes involved in fatty acid β-oxidation ([2]; liver): did not modify | eWAT OEA content ([3]; chronic i.c.v. OT 1.6 nmol/d, compared with saline): increased | eWAT content of other endocannabinoids (PEA, AEA, 2-AG) ([3]; chronic i.c.v. OT infusion): not modifying | stimulatory effect on OEA content ([3]; i.c.v. 1.6 nmol/d (lower dose)): 1.3 folds | stimulatory effect on OEA content ([3]; i.c.v. 16 nmol/d): 2 folds | level at 336 h [4]: 0.0218 ± 0.0058 ng/mL | plasma glycerol levels (HFD-induced obese rats [5]; central (i.c.v.) OT 1.6 nmol/day): increased | plasma 2-AG (HFD-induced obese rats [5]; [7]): 53 ± 4.9 pmol/mL | plasma AEA (HFD-induced obese rats [5]; [7]): 19 ± 2.3 pmol/mL | plasma FFA (HFD-induced obese rats [5]; [7]): unchanged | plasma Glucose (HFD-induced obese rats [5]; [7]): unchanged | plasma Insulin (HFD-induced obese rats [5]; [7]): unchanged | plasma Leptin (HFD-induced obese rats [5]; [7]): unchanged | plasma OEA (HFD-induced obese rats [5]; [7]): 178 ± 15 pmol/mL | plasma Oxytocin (HFD-induced obese rats [5]; [7]): increased | plasma PEA (HFD-induced obese rats [5]; [7]): 1.63 ± 0.15 nmol/mL | plasma TG (HFD-induced obese rats [5]; [7]): decreased | plasma FFA (HFD-induced obese rats [5]; [8]): 0.70 ± 0.06 mmol/L | plasma Glucose (HFD-induced obese rats [5]; [8]): 159.5 ± 4.1 mg/dL | plasma Insulin (HFD-induced obese rats [5]; [8]): 1.7 ± 0.3 ng/mL | plasma Leptin (HFD-induced obese rats [5]; [8]): 11.3 ± 2.2 ng/mL | plasma TG (HFD-induced obese rats [5]; [8]): 0.80 ± 0.05 mmol/L | body weight gain [6]: did not modify | mRNA expression of PPAR-alpha target genes (Acadm, Acox1, Ehhadh, Ucp3) [6]: no effect

Reference: US9101569B2, “Methods for the treatment of insulin resistance” (UNIVERSITE DE GENEVE, priority 2010, dated 2015)
